Values after ≈ are worked out from the molar mass of the structure shown. Active and inactive are the calls of the source. The rule behind the calls is not given here.
Experiments:
[1] = Drug concentration in rat brain at 10 mg/kg, po after 2 hrs; format: ADME, organism-based; parameters: dose 10 mg/kg, route oral; conditions: read-out: Drug uptake
Adenosine receptor A2a [2] = target: Adenosine receptor A2a (Rattus norvegicus, UniProt P30543); assay: Displacement of [3H][…] from rat adenosine A2A receptor expressed in CHO cells; format: cell-based
Chain of Adenosine receptor A2a (Rattus norvegicus, UniProt P30543) (P30543 whole entry): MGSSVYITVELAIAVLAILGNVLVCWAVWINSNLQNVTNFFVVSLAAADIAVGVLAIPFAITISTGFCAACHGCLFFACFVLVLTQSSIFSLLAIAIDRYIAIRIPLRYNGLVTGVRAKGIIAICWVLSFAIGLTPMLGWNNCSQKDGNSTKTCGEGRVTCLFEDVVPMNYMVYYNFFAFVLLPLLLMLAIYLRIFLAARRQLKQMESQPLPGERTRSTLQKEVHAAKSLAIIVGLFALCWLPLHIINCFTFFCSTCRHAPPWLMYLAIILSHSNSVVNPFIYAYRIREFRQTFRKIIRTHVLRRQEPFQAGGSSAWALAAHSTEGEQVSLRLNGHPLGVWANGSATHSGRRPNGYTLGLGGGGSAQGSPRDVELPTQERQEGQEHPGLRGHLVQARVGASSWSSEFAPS

Rattus norvegicus [3] = organism: Rattus norvegicus; assay: Inhibition of haloperidol-induced catalepsy in rat assessed as minimal effective dose; format: functional; conditions: read-out: MED
Homo sapiens = organism: Homo sapiens; assay: Selectivity ratio of Ki for human adenosine A1 receptor to Ki for human adenosine A2A receptor
Adenosine receptor A1 = target: T1, Adenosine receptor A1 (Homo sapiens, UniProt P30542); assay: Displacement of [3H]DPCPX from human adenosine A1 receptor expressed in HEK293 cells; format: cell-based
T1 sequence (P30542 whole entry): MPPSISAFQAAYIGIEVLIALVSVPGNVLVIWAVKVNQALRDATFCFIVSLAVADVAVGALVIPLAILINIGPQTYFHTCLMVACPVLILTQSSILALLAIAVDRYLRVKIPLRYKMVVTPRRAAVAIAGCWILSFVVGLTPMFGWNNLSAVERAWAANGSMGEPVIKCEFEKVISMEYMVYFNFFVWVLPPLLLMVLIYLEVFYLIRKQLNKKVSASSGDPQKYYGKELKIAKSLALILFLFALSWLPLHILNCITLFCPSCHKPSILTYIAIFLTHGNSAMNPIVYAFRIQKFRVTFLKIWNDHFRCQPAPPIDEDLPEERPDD

Adenosine receptor A2a [4] = target: T2, Adenosine receptor A2a (Homo sapiens, UniProt P29274); assay: Displacement of [3H][…] from human adenosine A2A receptor expressed in HEK293 cells; format: cell-based
T2 sequence (P29274 whole entry): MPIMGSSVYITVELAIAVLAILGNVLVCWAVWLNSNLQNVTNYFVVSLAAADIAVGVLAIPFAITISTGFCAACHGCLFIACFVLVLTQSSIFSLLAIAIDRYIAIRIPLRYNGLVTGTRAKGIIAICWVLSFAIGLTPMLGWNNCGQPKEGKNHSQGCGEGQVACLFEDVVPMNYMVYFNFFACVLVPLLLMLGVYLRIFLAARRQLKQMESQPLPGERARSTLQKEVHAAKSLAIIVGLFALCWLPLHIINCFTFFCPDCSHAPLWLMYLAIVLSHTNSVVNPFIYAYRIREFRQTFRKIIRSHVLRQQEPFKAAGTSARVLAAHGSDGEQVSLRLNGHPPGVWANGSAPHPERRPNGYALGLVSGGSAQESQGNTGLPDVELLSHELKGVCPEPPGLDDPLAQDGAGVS

[5] = Lipophilicity, log D at pH 7.4; format: physicochemical; conditions: buffer
Cytochrome P450 3A4 = Cytochrome P450 3A4 (Homo sapiens, UniProt P08684)
Chain of Cytochrome P450 3A4 (P08684 whole entry): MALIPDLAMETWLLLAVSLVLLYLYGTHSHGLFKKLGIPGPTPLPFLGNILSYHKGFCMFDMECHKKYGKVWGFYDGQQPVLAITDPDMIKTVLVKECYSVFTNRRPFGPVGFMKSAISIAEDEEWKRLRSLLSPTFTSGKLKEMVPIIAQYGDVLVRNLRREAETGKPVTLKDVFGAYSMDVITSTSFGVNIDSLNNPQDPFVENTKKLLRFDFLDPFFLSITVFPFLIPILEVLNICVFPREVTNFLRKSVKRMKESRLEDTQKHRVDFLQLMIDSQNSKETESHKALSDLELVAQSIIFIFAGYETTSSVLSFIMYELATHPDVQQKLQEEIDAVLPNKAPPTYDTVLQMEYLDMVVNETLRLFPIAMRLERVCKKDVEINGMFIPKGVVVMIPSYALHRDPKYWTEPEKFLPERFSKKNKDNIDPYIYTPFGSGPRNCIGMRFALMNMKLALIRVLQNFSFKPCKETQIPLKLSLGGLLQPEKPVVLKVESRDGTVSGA
Description: Inhibition of CYP3A4 in human liver microsomes by LC-MS/MS analysis

[6] = Dissociation constant, pKa of the compound; format: physicochemical
[7] = Metabolic stability in human liver microsomes assessed as intrinsic clearance by LC-MS/MS analysis; format: ADME, Microsome
[8] = Metabolic stability in rat liver microsomes assessed as intrinsic clearance by LC-MS/MS analysis; format: ADME, Microsome
Rattus norvegicus [9] = assay: Inhibition of haloperidol-induced catalepsy in rat at 10 mg/kg, po after 2 hrs; format: functional; parameters: scale not given: the % may be the effect or the level left
[10] = Plasma concentration in rat at 10 mg/kg, po after 2 hrs; format: ADME, organism-based; parameters: dose 10 mg/kg, route oral
Adenosine receptor A2a [11] = target: T2, Adenosine receptor A2a; assay: Antagonist activity at human adenosine A2A receptor expressed in CHO cells assessed as inhibition of CGS-21680-induced cAMP production; format: functional, cell-based
Rattus norvegicus [12] = assay: Inhibition of haloperidol-induced catalepsy in rat at 30 mg/kg, po after 2 hrs; format: functional
[13] = Permeability from apical to basolateral side of the human Caco-2 membrane by LC-MS/MS analysis; format: ADME, cell-based; conditions: read-out: permeability
[14] = Aqueous solubility in phosphate-buffered saline at pH 7.4; format: physicochemical

Ratio Ki (Homo sapiens) | Ki (Adenosine receptor A1) [nM] | Ki (Adenosine receptor A2a [4]) [nM] | IC50 (Cytochrome P450 3A4) [µM] | CLint scaled [7] [mL/min/kg] | CLint scaled [8] [mL/min/kg] | SMILES | concentration at 2 h [1] [ng/g] | Ki (Adenosine receptor A2a [2]) [nM] | minimal effective dose (Rattus norvegicus [3]) [mg/kg] | logD [5] | pKa [6] | Activity (Rattus norvegicus [9]) [%] | concentration at 2 h [10] [ng/mL] | IC50 (Adenosine receptor A2a [11]) [nM] | Activity (Rattus norvegicus [12]) | Papp A→B [13] [×10⁻⁶ cm/s] | solubility [14] [µg/mL]
79 | 620 | 7.8 | 20 | 38 | 59 | CCOC(=O)Nc1cc(-c2cncc(OC)c2)nc(-n2nc(C)cc2C)n1 |  | 82 |  |  |  |  |  | 196 | inactive |  | 
187 | 110 | 0.6 | > 20 | 36 | 360 | COc1cccc(-c2cc(NC(C)=O)nc(-n3nc(C)cc3C)n2)c1F |  | 12 |  | 2 |  |  |  | 32 | inactive | 26 | 170 (≈ 478 µM)
21 | 820 | 40 | 8.5 |  |  | CC(=O)Nc1cc(-c2ccncc2)nc(-n2nc(C)cc2C)n1 |  |  |  |  |  |  |  |  |  |  | 
53 | 4600 | 87 |  |  |  | CC(=O)Nc1cc(-c2cc(N3CCOCC3)ccn2)nc(-n2nc(C)cc2C)n1 |  |  |  |  |  |  |  |  |  |  | 
67 | 195 | 2.9 | 18 | 41 | 140 | CC(=O)Nc1cc(-c2cncc(O)c2)nc(-n2nc(C)cc2C)n1 | 154 | 32 |  | 2.4 |  |  | 264 | 64 | inactive |  | 
71 | 65 | 0.92 | 0.74 |  |  | COc1cccc(-c2cc(NC(C)=O)nc(-n3nc(C)cc3C)n2)c1 |  |  |  |  |  |  |  |  |  |  | 
 | 110 | 3.1 |  | 3 | 43 | COCCOc1cncc(-c2cc(NC(C)=O)nc(-n3nc(C)cc3C)n2)c1 |  |  |  |  |  |  |  |  |  |  | 

Second part, the compound before the results:

SMILES | Ratio Ki (Homo sapiens) | Ki (Adenosine receptor A1) [nM] | Ki (Adenosine receptor A2a [4]) [nM] | IC50 (Cytochrome P450 3A4) [µM] | CLint scaled [7] [mL/min/kg] | CLint scaled [8] [mL/min/kg] | concentration at 2 h [1] [ng/g] | Ki (Adenosine receptor A2a [2]) [nM] | minimal effective dose (Rattus norvegicus [3]) [mg/kg] | logD [5] | pKa [6] | Activity (Rattus norvegicus [9]) [%] | concentration at 2 h [10] [ng/mL] | IC50 (Adenosine receptor A2a [11]) [nM] | Activity (Rattus norvegicus [12]) | Papp A→B [13] [×10⁻⁶ cm/s] | solubility [14] [µg/mL]
CCC(=O)Nc1cc(-c2cncc(OC)c2)nc(-n2nc(C)cc2C)n1 | 39 | 70 | 1.8 | 17 | 29 | 110 | 1380 | 21 | 1 | 2.8 | 3.6 | 69 | 860 | 31 |  |  | 
CC(=O)Nc1cc(-c2cncc(N3CCOCC3)c2)nc(-n2nc(C)cc2C)n1 | 74 | 220 | 3 | > 20 | 12 | 150 |  |  |  |  |  |  |  |  |  |  | 
CC(=O)Nc1cc(-c2cccc(N)n2)nc(-n2nc(C)cc2C)n1 | 57 | 440 | 7.9 | > 20 |  |  |  |  |  |  |  |  |  |  |  |  | 
CC(=O)Nc1cc(-c2cccc(N(C)C)n2)nc(-n2nc(C)cc2C)n1 | 133 | 81 | 0.61 | 25 | 54 | 1600 | 180 | 20 | 30 |  |  |  | 290 | 156 |  |  | 
CC(=O)Nc1cc(-c2ccnc(N3CCOCC3)c2)nc(-n2nc(C)cc2C)n1 | 48 | 580 | 12 |  |  |  |  |  |  |  |  |  |  |  |  |  | 
CC(=O)Nc1cc(-c2cccc(N3CCCCC3)n2)nc(-n2nc(C)cc2C)n1 | 54 | 31 | 0.56 |  |  |  |  |  |  |  |  |  |  |  |  |  | 
CC(=O)Nc1cc(-c2cccnc2)nc(-n2nc(C)cc2C)n1 | 18 | 2100 | 120 | > 20 |  |  |  |  |  |  |  |  |  |  |  |  | 
COc1cc(OC)cc(-c2cc(NC(C)=O)nc(-n3nc(C)cc3C)n2)c1 | 116 | 22 | 0.19 | 0.38 | 9.3 | 110 | 1150 | 3 | 1 | 3.2 |  | 49 | 1330 | 17 |  | 2.4 | < 20
CC(=O)Nc1cc(-c2cccc(N3CCCOCC3)n2)nc(-n2nc(C)cc2C)n1 | 121 | 280 | 2.3 | > 20 | 94 | 1000 |  |  |  |  |  |  |  |  |  |  | 
CC(=O)Nc1cc(-c2cccc(N3CCCC3)n2)nc(-n2nc(C)cc2C)n1 | 28 | 7.2 | 0.26 | > 20 |  |  |  |  |  |  |  |  |  |  |  |  | 
COc1cncc(-c2cc(NC(=O)CN3CCOCC3)nc(-n3nc(C)cc3C)n2)c1 | 235 | 940 | 4 | > 20 | 3 | 150 |  | 30 |  | 2.4 | 5.3 |  |  | 49 | inactive |  | 
COCCN(C)c1cccc(-c2cc(NC(C)=O)nc(-n3nc(C)cc3C)n2)n1 | 76 | 55 | 0.72 | 2.5 | 52 | 490 | 870 | 14 | 10 |  |  | 70 | 220 | 70 |  |  | 
CC(=O)Nc1cc(-c2ccccc2)nc(-n2nc(C)cc2C)n1 | 3.3 | 290 |  | 43 |  |  |  |  |  |  |  |  |  |  |  |  | 
COC1CN(c2cccc(-c3cc(NC(C)=O)nc(-n4nc(C)cc4C)n3)n2)C1 | 72 | 34 | 0.47 | 11 | 25 | 160 | 560 | 1.5 |  | 3.6 | 3.4 |  | 150 | 18 |  |  | 30 (≈ 76.2 µM)
COC(=O)Nc1cc(-c2cncc(OC)c2)nc(-n2nc(C)cc2C)n1 | 106 | 780 | 7.4 | 16 | 16 | 93 |  | 68 | 10 |  |  | 46 |  | 167 |  |  | 
